The values that follow are results of earlier work, collected in PubChem BioAssay AID1259409 (Chemical Carcinogenesis Research Information System (CCRIS), 2018).

In this data set the test system is rodent chemically induced tumor inhibition, incidence and multiplicity. The experiment in a line: CCRIS tumor inhibitor studies. The settings on record: Dose [Inhibitor]: 0. The text has this: The CCRIS database contains chemical records with carcinogenicity, mutagenicity, tumor promotion, and tumor inhibition test results. It was developed by the National Cancer Institute (NCI). Data are derived from studies cited in primary journals, current awareness tools, NCI reports, and other sources. Test results have been reviewed by experts in carcinogenesis and mutagenesis.
CCRIS provides historical information from the years 1985 - 2011. It is no longer updated.
This is an archive assay for CCRIS tumor inhibitor studies.

`NC(=S)S`: the “tumour outcome (control, treated, inhibition, significance)” value by setting is: (Carcinogen: ETHYL CARBAMATE, 51-79-6, 0.25 MG/G IN 0.005 ML OF 0.9% SALINE ADMINISTERED 30 MIN PRIOR TO CARCINOGEN DOSE (STUDY DURATION: 26 WK), Route [Inhibitor]: INTRAPERITONEAL, Species: MOUSE, Strain/Sex: STRAIN-A/FEMALE, Target Tissue: Type of Lesion: LUNG: ADENOMA, Dose [Carcinogen]: 0.5 MG/G ONCE, Promoter: NONE USED) 100%, 100%, 0%, not calculated; (Carcinogen: ETHYL CARBAMATE, 51-79-6, 0.25 MG/G IN 0.005 ML OF 0.9% SALINE FIRST DOSE ADMINISTERED 30 MIN PRIOR TO CARCINOGEN DOSE FOLLOWED BY A SECOND DOS, Route [Inhibitor]: INTRAPERITONEAL, Species: MOUSE, Strain/Sex: STRAIN-A/FEMALE, Target Tissue: Type of Lesion: LUNG: ADENOMA, Dose [Carcinogen]: 0.25 MG/G ONCE, Promoter: NONE USED) 100%, 100%, 0%, not calculated; (Carcinogen: ETHYL CARBAMATE, 51-79-6, 0.25 MG/G IN 0.005 ML OF 0.9% SALINE FIRST DOSE ADMINISTERED 30 MIN PRIOR TO CARCINOGEN DOSE FOLLOWED BY A SECOND DOS, Route [Inhibitor]: INTRAPERITONEAL, Species: MOUSE, Strain/Sex: STRAIN-A/FEMALE, Target Tissue: Type of Lesion: LUNG: ADENOMA, Dose [Carcinogen]: 0.5 MG/G ONCE, Promoter: NONE USED) 100%, 100%, 0%, not calculated; (Carcinogen: ETHYL CARBAMATE, 51-79-6, 0.5 MG/G IN 0.01 ML OF 0.9% SALINE ADMINISTERED 30 MIN PRIOR TO CARCINOGEN DOSE (STUDY DURATION: 7 MO), Route [Inhibitor]: INTRAPERITONEAL, Species: MOUSE, Strain/Sex: B6C3F1/MALE, Target Tissue: Type of Lesion: LIVER: HEPATOMA, Dose [Carcinogen]: 0.5 MG/G ONCE, Promoter: NONE USED) 26/26 (100%), 31/31 (100%), 0%, not calculated; (Carcinogen: ETHYL CARBAMATE, 51-79-6, 0.5 MG/G IN 0.01 ML OF 0.9% SALINE ADMINISTERED 30 MIN PRIOR TO CARCINOGEN DOSE (STUDY DURATION: 8 MO), Route [Inhibitor]: INTRAPERITONEAL, Species: MOUSE, Strain/Sex: B6C3F1/MALE, Target Tissue: Type of Lesion: LIVER: HEPATOMA, Dose [Carcinogen]: 0.125 MG/G ONCE, Promoter: NONE USED) 24/24 (100%), 24/25 (96%), 4%, not calculated; (Carcinogen: ETHYL CARBAMATE, 51-79-6, 0.5 MG/G IN 0.01 ML OF 0.9% SALINE ADMINISTERED 30 MIN PRIOR TO CARCINOGEN DOSE (STUDY DURATION: 8 MO), Route [Inhibitor]: INTRAPERITONEAL, Species: MOUSE, Strain/Sex: B6C3F1/MALE, Target Tissue: Type of Lesion: LIVER: HEPATOMA, Dose [Carcinogen]: 0.25 MG/G ONCE, Promoter: NONE USED) 17/17 (100%), 28/29 (97%), 3%, not calculated. For the same molecule, the “tumour outcome (control, treated, inhibition, significance)” value was 40%, 15%, 62%, not calculated (Carcinogen: ETHYL CARBAMATE, 51-79-6, 0.5 MG/G IN 0.01 ML OF 0.9% SALINE ADMINISTERED 30 MIN PRIOR TO CARCINOGEN DOSE (STUDY DURATION: 12 MO), Route [Inhibitor]: INTRAPERITONEAL, Species: MOUSE, Strain/Sex: B6C3F1/FEMALE, Target Tissue: Type of Lesion: HARDERIAN GLAND: TUMOR, Dose [Carcinogen]: 0.5 MG/G ONCE, Promoter: NONE USED); 68%, 19%, 72%, not calculated (Carcinogen: ETHYL CARBAMATE, 51-79-6, 0.5 MG/G IN 0.01 ML OF 0.9% SALINE ADMINISTERED 30 MIN PRIOR TO CARCINOGEN DOSE (STUDY DURATION: 12 MO), Route [Inhibitor]: INTRAPERITONEAL, Species: MOUSE, Strain/Sex: B6C3F1/FEMALE, Target Tissue: Type of Lesion: LIVER: HEPATOMA, Dose [Carcinogen]: 0.5 MG/G ONCE, Promoter: NONE USED); 48%, 12%, 75%, not calculated (Carcinogen: ETHYL CARBAMATE, 51-79-6, 0.5 MG/G IN 0.01 ML OF 0.9% SALINE ADMINISTERED 30 MIN PRIOR TO CARCINOGEN DOSE (STUDY DURATION: 12 MO), Route [Inhibitor]: INTRAPERITONEAL, Species: MOUSE, Strain/Sex: B6C3F1/FEMALE, Target Tissue: Type of Lesion: LUNG: ADENOMA, Dose [Carcinogen]: 0.5 MG/G ONCE, Promoter: NONE USED); 100%, 100%, 0%, not calculated (Carcinogen: VINYL CARBAMATE, 15805-73-9, 0.25 MG/G IN 0.005 ML OF 0.9% SALINE ADMINISTERED 30 MIN PRIOR TO CARCINOGEN DOSE (STUDY DURATION: 26 WK), Route [Inhibitor]: INTRAPERITONEAL, Species: MOUSE, Strain/Sex: STRAIN-A/FEMALE, Target Tissue: Type of Lesion: LUNG: ADENOMA, Dose [Carcinogen]: 0.025 MG/G ONCE, Promoter: NONE USED); 100%, 100%, 0%, not calculated (Carcinogen: VINYL CARBAMATE, 15805-73-9, 0.5 MG/G IN 0.005 ML OF 0.9% SALINE ADMINISTERED 30 MIN PRIOR TO CARCINOGEN DOSE (STUDY DURATION: 26 WK), Route [Inhibitor]: INTRAPERITONEAL, Species: MOUSE, Strain/Sex: STRAIN-A/FEMALE, Target Tissue: Type of Lesion: LUNG: ADENOMA, Dose [Carcinogen]: 0.025 MG/G ONCE, Promoter: NONE USED); 24/24 (100%), 29/29 (100%), 0%, not calculated (Carcinogen: VINYL CARBAMATE, 15805-73-9, 0.5 MG/G IN 0.01 ML OF 0.9% SALINE ADMINISTERED 30 MIN PRIOR TO CARCINOGEN DOSE (STUDY DURATION: 7 MO), Route [Inhibitor]: INTRAPERITONEAL, Species: MOUSE, Strain/Sex: B6C3F1/MALE, Target Tissue: Type of Lesion: LIVER: HEPATOMA, Dose [Carcinogen]: 0.025 MG/G ONCE, Promoter: NONE USED). For the same molecule, the “tumour outcome (control, treated, inhibition, significance)” value runs as follows: (Carcinogen: VINYL CARBAMATE, 15805-73-9, 0.5 MG/G IN 0.01 ML OF 0.9% SALINE ADMINISTERED 30 MIN PRIOR TO CARCINOGEN DOSE (STUDY DURATION: 8 MO), Route [Inhibitor]: INTRAPERITONEAL, Species: MOUSE, Strain/Sex: B6C3F1/MALE, Target Tissue: Type of Lesion: LIVER: HEPATOMA, Dose [Carcinogen]: 0.003 MG/G ONCE, Promoter: NONE USED) 29/29 (100%), 27/27 (100%), 0%, not calculated; (Carcinogen: VINYL CARBAMATE, 15805-73-9, 0.5 MG/G IN 0.01 ML OF 0.9% SALINE ADMINISTERED 30 MIN PRIOR TO CARCINOGEN DOSE (STUDY DURATION: 8 MO), Route [Inhibitor]: INTRAPERITONEAL, Species: MOUSE, Strain/Sex: B6C3F1/MALE, Target Tissue: Type of Lesion: LIVER: HEPATOMA, Dose [Carcinogen]: 0.008 MG/G ONCE, Promoter: NONE USED) 23/23 (100%), 27/27 (100%), 0%, not calculated; (Carcinogen: VINYL CARBAMATE, 15805-73-9, 0.5 MG/G IN 0.01 ML OF 0.9% SALINE ADMINISTERED 30 MIN PRIOR TO CARCINOGEN DOSE (STUDY DURATION: 12 MO), Route [Inhibitor]: INTRAPERITONEAL, Species: MOUSE, Strain/Sex: B6C3F1/FEMALE, Target Tissue: Type of Lesion: HARDERIAN GLAND: TUMOR, Dose [Carcinogen]: 0.025 MG/G ONCE, Promoter: NONE USED) 68%, 22%, 68%, not calculated; (Carcinogen: VINYL CARBAMATE, 15805-73-9, 0.5 MG/G IN 0.01 ML OF 0.9% SALINE ADMINISTERED 30 MIN PRIOR TO CARCINOGEN DOSE (STUDY DURATION: 12 MO), Route [Inhibitor]: INTRAPERITONEAL, Species: MOUSE, Strain/Sex: B6C3F1/FEMALE, Target Tissue: Type of Lesion: LIVER: HEPATOMA, Dose [Carcinogen]: 0.025 MG/G ONCE, Promoter: NONE USED) 96%, 30%, 69%, not calculated; (Carcinogen: VINYL CARBAMATE, 15805-73-9, 0.5 MG/G IN 0.01 ML OF 0.9% SALINE ADMINISTERED 30 MIN PRIOR TO CARCINOGEN DOSE (STUDY DURATION: 12 MO), Route [Inhibitor]: INTRAPERITONEAL, Species: MOUSE, Strain/Sex: B6C3F1/FEMALE, Target Tissue: Type of Lesion: LUNG: ADENOMA, Dose [Carcinogen]: 0.025 MG/G ONCE, Promoter: NONE USED) 54%, 9%, 83%, not calculated.

In the case of `O=S(=O)([O-])[O-].O=S(=O)([O-])[O-].O=S(=O)([O-])[O-].[Mo]`, the “tumour outcome (control, treated, inhibition, significance)” value (Carcinogen: N-METHYL-N-BENZYLNITROSAMINE, 937-40-6, 2 PPM IN DIET FOR 1 WK PRIOR TO CARCINOGEN (STUDY DURATION: 25 WK), Route [Inhibitor]: ORAL, Species: RAT, Strain/Sex: F344/MALE, Target Tissue: Type of Lesion: ESOPHAGUS: CARCINOMA, Dose [Carcinogen]: 2.5 MG/KG 1/WK FOR 20 WK) is reported as 30/41 (73%), 20/45 (44%), 40%, p<0.01.
